Measurements: US11318131B2, “Nanoliposomal irinotecan for use in treating small cell lung cancer” (Ipsen Biopharm Ltd., priority 2015, dated 2022)
Like-named read-outs stand apart in the source and are kept apart here.

Assays:
[1] = test system: DMS-114 SCLC cell line; assay: Cell growth inhibition kinetics, IncuCyte ZOOM System; type: cell-based; conditions: DMS-114, time-course of 88 hours
[2] = test system: DMS53 SCLC cell line; assay: SN-38 in vitro growth and viability assay; type: cell-based
[3] = test system: SW1271 SCLC cell line; assay: SN-38 in vitro growth and viability assay; type: cell-based
[4] = test system: DMS114 SCLC cell line
Protocol: (§1) Irinotecan liposome injection was administered intravenously to mice bearing xenograft tumors. At 24 hours post administration, mice were sacrificed and tumors were harvested. Irinotecan and SN-38 in tumors were measured by high performance liquid chromatography (HPLC). Data were normalized to injected dose per tumor weight. […] Cell growth inhibition kinetics of SN-38 in the cell lines was determined using IncuCyte® ZOOM System.

[5] = test system: NCI-H1048 SCLC cell line
Protocol: as §1

[6] = test system: NCI-H1048 SCLC cell line; assay: Cell growth inhibition kinetics, IncuCyte ZOOM System; type: cell-based; conditions: NCI-H1048, time-course of 88 hours
[7] = test system: small cell lung cancer (SCLC); conditions: second line SCLC, cited from earlier work; for overall survival: certain regimens; for grade 3 or greater diarrhea / grade 3 or greater neutropenia rates / overall response rates / overall survival (OS) / progression free survival (PFS): topotecan 1.5 mg/m^2 days 1-5 every 3 weeks, non-liposomal irinotecan 300 mg/m^2 every 3 weeks
[8] = test system: NCI-H1048 xenograft; assay: NCI-H1048 SCLC xenograft, treatment naive; conditions: for anti-tumor activity / response (in words): NCI-H1048, irinotecan 33 mg/kg IV, weekly
[9] = test system: DMS-114 xenograft; assay: DMS-114 SCLC xenograft, NOD/SCID mice
[10] = test system: DMS-53 xenograft; assay: DMS-53 SCLC xenograft; conditions: nal-IRI 16 mg/kg IV, topotecan 0.83 mg/kg/wk days 1-2, weekly
[11] = test system: NCI-H1048 xenograft; assay: Second line SCLC model: NCI-H1048 after carboplatin plus etoposide; type: in vivo; conditions: weekly: nal-IRI 16 mg/kg IV; irinotecan 33 mg/kg IV; topotecan 1.66 mg/kg/wk IP days 1 and 2
Protocol: As described below, mice bearing NCI-H1048 SCLC tumors were treated with a carboplatin plus etoposide, a first line regimen in SCLC. Once the tumors escaped growth control by carboplatin plus etoposide, mice were randomized to either continue treatment with carboplatin plus etoposide or switch to second line treatment with either irinotecan liposome injection, non-liposomal irinotecan or topotecan.
NOD/SCID mice with NCIH1048 SCLC xenograft tumors were treated weekly with the combination of 30 mg/kg carboplatin plus 25 mg/kg etoposide. […] . […] . […] . FIG. 21B is a survival graph for mice on each of the treatments.

[12] = test system: DMS-114 xenograft; assay: DMS-114 xenograft, topotecan-treated tumors; conditions: nal-IRI 16 mg/kg; irinotecan 33 mg/kg
[13] = nal-IRI 16 mg/kg IV, topotecan 0.83 mg/kg/wk days 1-2 IP

SMILES: CCc1c2c(nc3ccc(O)cc13)-c1cc3c(c(=O)n1C2)COC(=O)[C@]3(O)CC [SN-38]
- concentration with cell killing after prolonged incubation times [1]: ≥ 10 nM
- concentration with effective cell growth inhibition [1]: 1 to 10 nM
- decrease in cell viability [2]: > 90%
- decrease in cell viability [3]: > 90%
- decrease in cell viability [4]: > 90%
- decrease in cell viability [5]: > 90%
- concentration with cell killing after prolonged incubation times [6]: ≥ 10 nM
- concentration with effective cell growth inhibition [6]: 1 to 10 nM

SMILES: CC[C@@]1(O)C(=O)OCc2c1cc1n(c2=O)Cc2cc3c(CN(C)C)c(O)ccc3nc2-1 [topotecan]
- overall survival ([7]; all patients): 7.8 months
- overall survival ([7]; refractory patients): 5.7 months
- overall survival ([7]; sensitive patients): 9.9 months
- grade 3 or greater diarrhea [7]: less than 5%
- grade 3 or greater neutropenia rates [7]: 28-88%
- overall response rates [7]: 7-24%
- overall survival (OS) [7]: 5.0-8.9 months
- progression free survival (PFS) [7]: 3.1-3.7 months
- mice with complete tumor regressions after 4 cycles of treatment ([8]; Example 11, nal-IRI 16 mg/kg salt q1w, topotecan 0.83 mg/kg/week Day 1-2): 0 out of 7
- mice with complete regressions of their tumors ([8]; Example 15, n=10, nal-IRI 16 mg/kg IV, topotecan 0.83 mg/kg/wk days 1-2 IP): 0 out of 10
- anti-tumor activity / response (in words) [8, 13]: limited tumor growth control
- anti-tumor activity of bolus (day 1) compared to fractionated (days 1 & 2) dosing ([9]; same dose intensity, FIG. 15 (DMS-114, NCI-H1048)): less anti-tumor activity
- anti-tumor activity / response (in words) [10]: limited tumor growth control
- anti-tumor activity in carboplatin plus etoposide-treated SCLC tumors (in words) [11]: seems to be active after 1-2 cycles but progress quickly after 3rd dose

SMILES: CCc1c2c(nc3ccc(OC(=O)N4CCC(N5CCCCC5)CC4)cc13)-c1cc3c(c(=O)n1C2)COC(=O)[C@]3(O)CC [non-liposomal irinotecan, (S)-4,11-diethyl-3,4,12,14-tetrahydro-4-hydroxy-3,14-dioxo1H-pyrano[3′,4′:6,7]-indolizino[1,2-b]quinolin-9-yl-[1,4′bipiperidine]-1′-carboxylate]
- grade 3 or greater diarrhea [7]: 0-13%
- grade 3 or greater neutropenia rates [7]: 21-23%
- overall response rates [7]: 0-33%
- overall survival (OS) [7]: 4.6-6.9 months
- progression free survival (PFS) [7]: 1.7-2.8 months
- anti-tumor activity / response (in words) [8, 13]: progress after initially responding to treatment
- anti-tumor activity / response (in words) ([9]; DMS-114, nal-IRI 16 mg/kg IV, irinotecan 33 mg/kg IV, topotecan 0.83 mg/kg/wk days 1-2 IP, weekly): became less responsive after 2-3 cycles
- responsiveness of topotecan-treated DMS114 tumors [12]: not
- anti-tumor activity in carboplatin plus etoposide-treated SCLC tumors (in words) [11]: active but after 3rd cycle some tumors are trending regrowth
